According to ChEMBL document CHEMBL3875142, “Quinolino[3,4-b]quinoxalines and pyridazino[4,3-c]quinoline derivatives: Synthesis, inhibition of topoisomerase IIα, G-quadruplex binding and cytotoxic properties” (Eur J Med Chem, 2016):
Calls of active or inactive are those of the source. No cut-off for these calls is given here.

Columns and labels:
[1] = biological target: DNA topoisomerase 2-alpha (Homo sapiens, UniProt P11388); test: Inhibition of human DNA topoisomerase 2alpha-mediated decatenation of kinetoplast DNA after 60 mins by agarose gel electrophoresis
DNA topoisomerase 2-alpha, sequence (P11388 whole entry): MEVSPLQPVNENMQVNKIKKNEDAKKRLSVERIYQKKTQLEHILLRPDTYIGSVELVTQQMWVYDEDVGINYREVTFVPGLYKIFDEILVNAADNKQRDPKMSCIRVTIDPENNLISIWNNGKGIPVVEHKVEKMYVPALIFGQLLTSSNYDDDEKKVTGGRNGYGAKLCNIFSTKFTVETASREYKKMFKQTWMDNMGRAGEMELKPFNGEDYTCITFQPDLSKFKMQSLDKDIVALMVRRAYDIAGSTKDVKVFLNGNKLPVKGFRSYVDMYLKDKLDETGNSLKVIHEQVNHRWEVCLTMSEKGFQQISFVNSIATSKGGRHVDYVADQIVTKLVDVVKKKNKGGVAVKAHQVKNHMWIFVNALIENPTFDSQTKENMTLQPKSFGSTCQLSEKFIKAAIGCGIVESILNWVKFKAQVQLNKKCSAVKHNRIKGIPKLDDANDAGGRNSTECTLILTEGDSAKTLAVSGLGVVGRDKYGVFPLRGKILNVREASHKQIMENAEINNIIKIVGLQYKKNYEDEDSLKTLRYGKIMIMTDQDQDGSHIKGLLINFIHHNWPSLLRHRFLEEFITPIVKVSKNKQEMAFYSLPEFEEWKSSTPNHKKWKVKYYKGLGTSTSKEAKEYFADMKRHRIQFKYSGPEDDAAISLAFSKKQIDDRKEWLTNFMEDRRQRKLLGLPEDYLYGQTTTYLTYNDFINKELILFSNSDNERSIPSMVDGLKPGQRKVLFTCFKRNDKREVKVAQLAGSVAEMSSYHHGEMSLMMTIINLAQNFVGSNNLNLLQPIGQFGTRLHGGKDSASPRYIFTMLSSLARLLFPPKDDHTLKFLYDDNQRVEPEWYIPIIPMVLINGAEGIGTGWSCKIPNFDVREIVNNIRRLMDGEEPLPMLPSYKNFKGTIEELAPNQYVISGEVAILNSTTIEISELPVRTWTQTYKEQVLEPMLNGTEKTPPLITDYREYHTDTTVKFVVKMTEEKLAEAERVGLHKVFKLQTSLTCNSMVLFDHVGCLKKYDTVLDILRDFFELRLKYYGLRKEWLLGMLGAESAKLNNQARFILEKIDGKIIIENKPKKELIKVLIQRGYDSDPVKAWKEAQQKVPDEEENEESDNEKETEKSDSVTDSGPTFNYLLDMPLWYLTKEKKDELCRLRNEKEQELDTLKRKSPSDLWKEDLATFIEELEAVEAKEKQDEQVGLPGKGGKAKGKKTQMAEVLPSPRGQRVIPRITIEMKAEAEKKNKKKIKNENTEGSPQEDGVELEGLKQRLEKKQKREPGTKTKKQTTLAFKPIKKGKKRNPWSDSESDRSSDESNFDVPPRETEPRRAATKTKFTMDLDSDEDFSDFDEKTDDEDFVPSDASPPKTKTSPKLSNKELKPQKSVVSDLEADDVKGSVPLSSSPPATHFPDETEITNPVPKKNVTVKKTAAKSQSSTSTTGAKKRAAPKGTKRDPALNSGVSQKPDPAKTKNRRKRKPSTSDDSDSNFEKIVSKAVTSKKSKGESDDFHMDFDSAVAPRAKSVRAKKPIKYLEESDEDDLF

[2] = Binding affinity to 5'-dabcyl/3'-fluorescein labeled duplex DNA (unknown origin) assessed as change in melting temperature at 10 uM by fluorescence assay
Homo sapiens = species on record: Homo sapiens; test: Binding affinity to 5'-dabcyl/3'-fluorescein labeled human telomeric sequence G-quadruplex DNA assessed as change in melting temperature at 10 uM by fluorescence assay
[3] = Binding affinity to 5'-dabcyl/3'-fluorescein labeled cKit G-quadruplex DNA (unknown origin) assessed as change in melting temperature at 10 uM by fluorescence assay
[4] = Binding affinity to 5'-dabcyl/3'-fluorescein labeled pu27 G-quadruplex DNA (unknown origin) assessed as change in melting temperature at 10 uM by fluorescence assay
[5] = Cytotoxicity against human HeLa cells after 72 hrs by MTT assay; type: functional, cell-based
[6] = Inhibition of Escherichia coli DNA topoisomerase 4 decatenation activity using kinetoplast DNA as substrate after 60 mins by agarose gel electrophoresis
[7] = Cytotoxicity against human MCF7 cells after 72 hrs by MTT assay; type: functional, cell-based; details: MCF7, 72 h
[8] = Inhibition of thiazole orange binding to human telomeric sequence G-quadruplex DNA by fluorescence assay
[9] = Inhibition of thiazole orange binding to pu27 G-quadruplex DNA (unknown origin) by fluorescence assay
[10] = Inhibition of thiazole orange binding to cKit G-quadruplex DNA (unknown origin) by fluorescence assay
[11] = Inhibition of thiazole orange binding to duplex DNA (unknown origin) by fluorescence assay
Escherichia coli = test: Induction of Escherichia coli pBR322 DNA unwinding at 0.1 to 10 uM after 1 hr by agarose gel electrophoresis

## CN(C)CCCOc1nc2ccccc2c2nc3ccccc3nc12
[1]
  IC50: 23.8 µM
[2]
  ΔTm: 0.5 °C
Homo sapiens
  ΔTm: 1.4 °C
[3]
  ΔTm: 3.8 °C
[4]
  ΔTm: 4.1 °C
[5]
  IC50: 6.1 µM

## CN(C)CCSc1nc2ccccc2c2nc3ccccc3nc12
[1]
  IC50: 17.8 µM
[6]
  IC50: > 100 µM
[2]
  ΔTm: 4.2 °C
Homo sapiens
  ΔTm: 10.6 °C
[3]
  ΔTm: 11.2 °C
[4]
  ΔTm: 8.8 °C
[5]
  IC50: 6.03 µM
[7]
  IC50: 2.41 µM

## CN(CCCCCNc1nc2ccccc2c2nc3ccccc3nc12)Cc1ccccc1
[1]
  IC50: > 100 µM
[6]
  IC50: > 100 µM
[2]
  ΔTm: 0 °C
Homo sapiens
  ΔTm: 3.1 °C
[3]
  ΔTm: 1.5 °C
[4]
  ΔTm: 5.9 °C
[5]
  IC50: > 100 µM
[7]
  IC50: > 100 µM

## CN(C)CCCCn1c(=O)c2nc3ccccc3nc2c2ccccc21
[1]
  IC50: 34.3 µM
[2]
  ΔTm: 0.9 °C
Homo sapiens
  ΔTm: 4.8 °C
[3]
  ΔTm: 7.4 °C
[4]
  ΔTm: 6.4 °C
[5]
  IC50: 11.1 µM

## CCN(CC)CCNc1nc2ccccc2c2nc3ccccc3nc12
[1]
  IC50: > 100 µM
[2]
  ΔTm: 1.1 °C
Homo sapiens
  ΔTm: 1.1 °C
[3]
  ΔTm: 5.8 °C
[4]
  ΔTm: 3.8 °C
[5]
  IC50: 6.87 µM

## CN(C)CCCCNc1nc2ccccc2c2nc3ccccc3nc12
[1]
  IC50: 5.14 µM
[6]
  IC50: > 100 µM
[2]
  ΔTm: 4.2 °C
Homo sapiens
  ΔTm: 9.8 °C
[3]
  ΔTm: 11.6 °C
[4]
  ΔTm: 9.4 °C
[5]
  IC50: 2.32 µM
[7]
  IC50: 1.6 µM
[8]
  EC50: 4.48 µM
[9]
  EC50: 0.57 µM
[10]
  EC50: 0.83 µM
[11]
  EC50: 1.26 µM

## O=c1[nH]c2ccccc2c2nc3ccccc3nc12
[1]
  IC50: > 100 µM
[6]
  IC50: > 100 µM
[2]
  ΔTm: 0 °C
Homo sapiens
  ΔTm: 0 °C
[3]
  ΔTm: 0 °C
[4]
  ΔTm: 0 °C
[5]
  IC50: 19.8 µM
[7]
  IC50: 32.7 µM

## c1ccc2nc3c(nc2c1)c(NCCN1CCCCC1)nc1ccccc13
[1]
  IC50: 19.4 µM
[2]
  ΔTm: 1.8 °C
Homo sapiens
  ΔTm: 0.4 °C
[3]
  ΔTm: 2 °C
[4]
  ΔTm: 1.4 °C
[5]
  IC50: 10.3 µM

## c1ccc2nc3c(nc2c1)c(NCCN1CCOCC1)nc1ccccc13
[1]
  IC50: 100 µM
[6]
  IC50: > 100 µM
[2]
  ΔTm: 0 °C
Homo sapiens
  ΔTm: 0 °C
[3]
  ΔTm: 0 °C
[4]
  ΔTm: 0 °C
[5]
  IC50: > 100 µM
[7]
  IC50: > 100 µM

## CN(C)CCn1c(=O)c2nc3ccccc3nc2c2ccccc21
[1]
  IC50: 35.6 µM
[2]
  ΔTm: 0.3 °C
Homo sapiens
  ΔTm: 2.7 °C
[3]
  ΔTm: 4.8 °C
[4]
  ΔTm: 4.1 °C
[5]
  IC50: 7.18 µM

## CN(C)CCNc1nc2ccccc2c2nc3ccccc3nc12
[1]
  IC50: 19.5 µM
[6]
  IC50: > 100 µM
[2]
  ΔTm: 4.3 °C
Homo sapiens
  ΔTm: 8.2 °C
[3]
  ΔTm: 9.7 °C
[4]
  ΔTm: 4 °C
[5]
  IC50: 2.98 µM
[7]
  IC50: 2.34 µM

## COc1cccc2c1C(=O)c1c(O)c3c(c(O)c1C2=O)C[C@@](O)(C(=O)CO)C[C@@H]3O[C@H]1C[C@H](N)[C@H](O)[C@H](C)O1 [DOXORUBICIN]
[1]
  IC50: 3 µM
Escherichia coli
  Activity: Active

## CCN(CC)CCn1c(=O)c2nc3ccccc3nc2c2ccccc21
[1]
  IC50: 87.6 µM
[2]
  ΔTm: 0.4 °C
Homo sapiens
  ΔTm: 2.3 °C
[3]
  ΔTm: 4.5 °C
[4]
  ΔTm: 3.5 °C
[5]
  IC50: 8.52 µM

## CCN(CC)CCCNc1nc2ccccc2c2nc3ccccc3nc12
[1]
  IC50: 13.9 µM
[2]
  ΔTm: 1.5 °C
Homo sapiens
  ΔTm: 2 °C
[3]
  ΔTm: 4.7 °C
[4]
  ΔTm: 5.9 °C
[5]
  IC50: 6.53 µM

## CCN(CC)CCOc1nc2ccccc2c2nc3ccccc3nc12
[1]
  IC50: > 100 µM
[2]
  ΔTm: 0.1 °C
Homo sapiens
  ΔTm: 1 °C
[3]
  ΔTm: 2.5 °C
[4]
  ΔTm: 0.8 °C
[5]
  IC50: 25.4 µM

## O=c1c2nc3ccccc3nc2c2ccccc2n1CCN1CCOCC1
[1]
  IC50: > 100 µM
[6]
  IC50: > 100 µM
[2]
  ΔTm: 0 °C
Homo sapiens
  ΔTm: 0.8 °C
[3]
  ΔTm: 0 °C
[4]
  ΔTm: 0 °C
[5]
  IC50: > 100 µM
[7]
  IC50: > 100 µM

## Cc1cc2c(=O)n(CCN(C)C)c3ccccc3c2nn1
[1]
  IC50: > 100 µM
[2]
  ΔTm: 0.2 °C
Homo sapiens
  ΔTm: 1.2 °C
[3]
  ΔTm: 2.7 °C
[4]
  ΔTm: 0.6 °C
[5]
  IC50: 40.9 µM

## CO[C@@H]1[C@@H](OC(N)=O)[C@@H](O)[C@H](Oc2ccc3c(O)c(NC(=O)c4ccc(O)c(CC=C(C)C)c4)c(=O)oc3c2C)OC1(C)C [NOVOBIOCIN]
[6]
  IC50: 63.4 µM

## O=C1c2ccccc2C(=O)c2c(NCCNCCO)ccc(NCCNCCO)c21 [AMETANTRONE]
[5]
  IC50: 0.9 µM
[7]
  IC50: 0.51 µM

## CN(C)CCCNc1nc2ccccc2c2nc3ccccc3nc12
[1]
  IC50: 11.3 µM
[6]
  IC50: > 100 µM
[2]
  ΔTm: 2.2 °C
Homo sapiens
  ΔTm: 6.1 °C
[3]
  ΔTm: 6.9 °C
[4]
  ΔTm: 5.9 °C
[5]
  IC50: 5.37 µM
[7]
  IC50: 2.96 µM

## CN(C)CCCn1c(=O)c2nc3ccccc3nc2c2ccccc21
[1]
  IC50: > 100 µM
[6]
  IC50: > 100 µM
[2]
  ΔTm: 0.4 °C
Homo sapiens
  ΔTm: 4.7 °C
[3]
  ΔTm: 7.8 °C
[4]
  ΔTm: 5.5 °C
[5]
  IC50: 2.04 µM
[7]
  IC50: 5.99 µM
[9]
  EC50: 1.32 µM
[10]
  EC50: 3.57 µM
[11]
  EC50: 10.9 µM

## Cc1cc2c(=O)n(CCCN(C)C)c3ccccc3c2nn1
[1]
  IC50: > 100 µM
[2]
  ΔTm: 0.1 °C
Homo sapiens
  ΔTm: 1.7 °C
[3]
  ΔTm: 1.8 °C
[4]
  ΔTm: 2.1 °C
[5]
  IC50: 49.1 µM
